Key:
[1] = tested on: S. aureus 815 (clinical strain); test: Planktonic phase growth reduction (OD600); format: cell-based, Staphylococcus aureus; conditions: GOS 0%
Procedure: (§1) Galactooligosaccharide and xylitol were evaluated alone and in combination at different concentrations (concentrations: 0, 1, 2.5 and 5%) to affect bacterial planktonic production and biofilm-forming ability of standardized broth cultures of S. aureus 815 (clinical strain) and S. epidermidis 317 (clinical strain) was assessed. Different concentrations of galactooligosaccharide, xylitol and their combination, were added to a 96 well plate to evaluate their in vitro effect on S. aureus and S. epidermidis bacterial planktonic population. The overnight bacterial inocula were prepared in Tryptic soy broth (TSB), refreshed in the same medium and adjusted to OD600=0.12 (approximately 5×10^6 CFU/ml) for the experiments. For the controls, galactooligosaccharide and xylitol were also assayed alone. The plates were incubated for t=3, and 6 h at 37° C. in aerobic conditions. Each determination was performed in duplicate for three independent experiments and the biomass was evaluated using a safranin staining method. After each time of incubation, the reduction of the OD600 was evaluated in respect to the controls and the colony forming units (CFU)/ml at 0 and 24 h were detected. Table 3 outlines the percentage reduction of S. aureus 815 and S. epidermidis 317 growth in planktonic phase in the presence of galactooligosaccharide, xylitol and their combinations at different concentrations (OD600) after 3 and 6 h.

[2] = tested on: S. epidermidis 317 (clinical strain); test: Biofilm phase reduction (safranin staining, OD492); format: cell-based, Staphylococcus epidermidis; conditions: GOS 0%; for percentage of biofilm reduction (anti-adhesive): 3 h; for percentage of biofilm reduction (anti-biofilm): 24 h
Procedure: (§2) Galactooligosaccharide and xylitol were evaluated alone and in combination at different concentrations (concentrations: 0, 1, 2.5 and 5%) to affect bacterial planktonic production and biofilm-forming ability of standardized broth cultures of S. aureus 815 (clinical strain) and S. epidermidis 317 (clinical strain) was assessed. Bacterial suspensions grown in TSB supplemented with 0.5% (v/v) glucose at logarithmic phase, were incubated on 96 flat-bottomed microliter plates in the presence of galactooligosaccharide or xylitol or their combination at different concentrations or TSB (control). After incubation for 3 h and 24 h at 37° C., each well was washed twice with sterile PBS, air-dried, stained for 1 min with 0.1% safranin, and washed with PBS. The stained biofilm were re-suspended in 200 μl ethanol (95% v/v), and OD492 was measured by spectrophotometry using an ELISA reader. Table 4 outlines the percentage of biofilm reduction (anti-adhesive (3 h) and anti-biofilm (24 h)) of S. aureus 815 and S. epidermidis 317 in the presence of galactooligosaccharide, xylitol and their combinations at different concentrations.

[3] = tested on: S. epidermidis 317 (clinical strain); test: Planktonic phase growth reduction (OD600); format: cell-based, Staphylococcus epidermidis; conditions: GOS 0%
Procedure: as §1

[4] = tested on: S. aureus 815 (clinical strain); test: Biofilm phase reduction (safranin staining, OD492); format: cell-based, Staphylococcus aureus; conditions: GOS 0%; for percentage of biofilm reduction (anti-adhesive): 3 h; for percentage of biofilm reduction (anti-biofilm): 24 h
Procedure: as §2

## OC[C@@H](O)[C@H](O)[C@@H](O)CO [Xylitol, xylitol]
[1]; xylitol 1%, 3 h
  percentage reduction of growth in planktonic phase (OD600): 14.38%
[1]; xylitol 1%, 6 h
  percentage reduction of growth in planktonic phase (OD600): 15.86%
[1]; xylitol 2.5%, 3 h
  percentage reduction of growth in planktonic phase (OD600): 23.93%
[1]; xylitol 2.5%, 6 h
  percentage reduction of growth in planktonic phase (OD600): 27.80%
[1]; xylitol 5%, 3 h
  percentage reduction of growth in planktonic phase (OD600): 26.70%
[1]; xylitol 5%, 6 h
  percentage reduction of growth in planktonic phase (OD600): 35.13%
[2]; xylitol 1%
  percentage of biofilm reduction (anti-adhesive): 1.00%
  percentage of biofilm reduction (anti-biofilm): 22.81%
[2]; xylitol 2.5%
  percentage of biofilm reduction (anti-adhesive): 10.64%
  percentage of biofilm reduction (anti-biofilm): 22.18%
[2]; xylitol 5%
  percentage of biofilm reduction (anti-adhesive): 14.16%
  percentage of biofilm reduction (anti-biofilm): 5.67%
[3]; xylitol 1%, 3 h
  percentage reduction of growth in planktonic phase (OD600): 13.40%
[3]; xylitol 1%, 6 h
  percentage reduction of growth in planktonic phase (OD600): 22.11%
[3]; xylitol 2.5%, 3 h
  percentage reduction of growth in planktonic phase (OD600): 19.36%
[3]; xylitol 2.5%, 6 h
  percentage reduction of growth in planktonic phase (OD600): 28.57%
[3]; xylitol 5%, 3 h
  percentage reduction of growth in planktonic phase (OD600): 27.13%
[3]; xylitol 5%, 6 h
  percentage reduction of growth in planktonic phase (OD600): 29.99%
[4]; xylitol 1%
  percentage of biofilm reduction (anti-adhesive): 21.61%
  percentage of biofilm reduction (anti-biofilm): 51.68%
[4]; xylitol 2.5%
  percentage of biofilm reduction (anti-adhesive): 28.81%
  percentage of biofilm reduction (anti-biofilm): 47.8%
[4]; xylitol 5%
  percentage of biofilm reduction (anti-adhesive): 36.98%
  percentage of biofilm reduction (anti-biofilm): 56.02%

— patent US11234997B2, “Antibacterial activity of galactooligosaccharide and xylitol in dermatological treatments” (ROTTAPHARM SPA, priority 2017, dated 2022)
